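Briefly, cells in 96-well plates were exposed to five compound concentrations for 48 h, and endpoints were estimated by linear interpolation. Here, GI50 denotes the concentration required for 50% inhibition of growth.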 The source made the active and inactive calls. Cut-off read from the data, not from the text of the source: active = GI50 up to about 1.1 µM and inactive = higher.
Experiments:
Experiment in all cases: inhibition of tumour cell growth, NCI panel, 48 h
[1] = system: HCT-15
[2] = system: T47D
[3] = system: OVCAR-8
[4] = system: SK-MEL-2
[5] = system: SW-620
[6] = system: TK-10
[7] = system: HOP-92
[8] = system: HCT-116
[9] = system: UACC-257
[10] = system: OVCAR-3
[11] = system: Hs-578T
[12] = system: A549
[13] = system: CCRF-CEM
[14] = system: HCC 2998
[15] = system: NCI-H460
[16] = system: UACC-62
[17] = system: PC-3
[18] = system: MOLT-4
[19] = system: EKVX

Compound	GI50 [1]	GI50 [2]	GI50 [3]	GI50 [4]	GI50 [5]	GI50 [6]	GI50 [7]	GI50 [8]	GI50 [9]	GI50 [10]	GI50 [11]	GI50 [12]	GI50 [13]	GI50 [14]	GI50 [15]	GI50 [16]	GI50 [17]	GI50 [18]	GI50 [19]
Cc1cc(S(=O)(=O)Nc2nnc3cnc4ccccc4n23)c(S)cc1Cl	> 100 µM	> 100 µM (inactive)	> 52.1 µM (inactive)	97.1 µM (inactive)	> 100 µM (inactive)	> 100 µM (inactive)	11.1 µM (inactive)	> 100 µM (inactive)	> 100 µM (inactive)	98.9 µM (inactive)	57.8 µM (inactive)	> 100 µM (inactive)	> 100 µM (inactive)	> 100 µM (inactive)	51.5 µM (inactive)	79.1 µM (inactive)	> 100 µM (inactive)	> 100 µM (inactive)	–
Cc1ccc(C)c2c1C/C(=C\c1ccccc1C(=O)O)C2=O	77.4 µM	> 100 µM (inactive)	> 100 µM (inactive)	–	> 100 µM (inactive)	> 100 µM (inactive)	> 100 µM (inactive)	> 100 µM (inactive)	> 100 µM (inactive)	54.2 µM (inactive)	> 100 µM (inactive)	90.8 µM (inactive)	55.6 µM (inactive)	> 100 µM (inactive)	> 100 µM (inactive)	> 100 µM (inactive)	> 100 µM (inactive)	86.9 µM (inactive)	45.7 µM (inactive)
COC(=O)c1sc(=S)sc1SCc1cccc(CSc2sc(=S)sc2C(=O)OC)c1	> 100 µM	> 100 µM (inactive)	> 100 µM (inactive)	38.8 µM (inactive)	> 100 µM (inactive)	29.4 µM (inactive)	29.4 µM (inactive)	90.6 µM (inactive)	> 100 µM (inactive)	63.4 µM (inactive)	36.3 µM (inactive)	–	> 100 µM (inactive)	> 100 µM (inactive)	> 100 µM (inactive)	22.9 µM (inactive)	> 100 µM (inactive)	> 100 µM (inactive)	56 µM (inactive)
O=C1CC(CC(O)C(O)CO)CC(=O)N1 (stereo not given)	> 100 µM	> 100 µM (inactive)	> 100 µM (inactive)	–	> 100 µM (inactive)	> 100 µM (inactive)	> 100 µM (inactive)	> 100 µM (inactive)	> 100 µM (inactive)	> 100 µM (inactive)	> 100 µM (inactive)	> 100 µM (inactive)	> 100 µM (inactive)	> 100 µM (inactive)	> 100 µM (inactive)	–	> 100 µM (inactive)	> 100 µM (inactive)	> 100 µM (inactive)
COC(=O)/C(=C\c1cn(C(C)=O)c2ccccc12)P(=O)(OC)OC	14.5 µM	13.7 µM (inactive)	22.5 µM (inactive)	–	18.5 µM (inactive)	20.8 µM (inactive)	16.6 µM (inactive)	13.9 µM (inactive)	–	17.1 µM (inactive)	27 µM (inactive)	16.4 µM (inactive)	14.6 µM (inactive)	16.8 µM (inactive)	15 µM (inactive)	11.5 µM (inactive)	16.2 µM (inactive)	34.8 µM (inactive)	17 µM (inactive)
c1ccc(P(CCP(c2ccccn2)c2ccccn2)c2ccccc2)cc1	> 100 µM	0.0435 µM (active)	0.108 µM (active)	7.67 µM (inactive)	3.51 µM (inactive)	26.5 µM (inactive)	3.01 µM (inactive)	0.0192 µM (active)	< 0.0185 µM (active)	< 0.0172 µM (active)	7.67 µM (inactive)	0.0736 µM (active)	–	3.37 µM (inactive)	0.196 µM (active)	63.7 µM (inactive)	0.0281 µM (active)	80.2 µM (inactive)	0.689 µM (active)
C1=C\SS/C=C\SS/1	14.4 µM	55.1 µM (inactive)	17.1 µM (inactive)	48.4 µM (inactive)	33.1 µM (inactive)	40.7 µM (inactive)	24.3 µM (inactive)	34.4 µM (inactive)	38.9 µM (inactive)	–	> 100 µM (inactive)	48.1 µM (inactive)	2.28 µM (inactive)	53.3 µM (inactive)	23.9 µM (inactive)	52.4 µM (inactive)	38.5 µM (inactive)	12.9 µM (inactive)	46.8 µM (inactive)
C[C@]12CC/C(=N\OCCN3CCCC3)C=C1CCC1C2CC[C@@]2(C)C1CC[C@]2(C)O (stereo not given in full)	3.29 µM	12.3 µM (inactive)	14 µM (inactive)	16.4 µM (inactive)	–	15.8 µM (inactive)	11.7 µM (inactive)	5.16 µM (inactive)	5.6 µM (inactive)	8.39 µM (inactive)	13.8 µM (inactive)	11.5 µM (inactive)	3.56 µM (inactive)	11.8 µM (inactive)	3.97 µM (inactive)	3.35 µM (inactive)	7.29 µM (inactive)	3.74 µM (inactive)	6.93 µM (inactive)
O=C(N=C1N(c2ccccc2)C(=O)C(=O)N1c1ccccc1)c1ccccc1	9.66 µM	15.6 µM (inactive)	9.35 µM (inactive)	15.5 µM (inactive)	13.1 µM (inactive)	15.3 µM (inactive)	2.99 µM (inactive)	3.99 µM (inactive)	29.9 µM (inactive)	–	4.65 µM (inactive)	5.48 µM (inactive)	24.8 µM (inactive)	8.53 µM (inactive)	11.7 µM (inactive)	7.93 µM (inactive)	14.7 µM (inactive)	15.5 µM (inactive)	12.7 µM (inactive)
CSc1ncc2c(C#N)c3[nH]c4ccccc4n3c(=O)c2n1	9.71 µM	22.9 µM (inactive)	7.85 µM (inactive)	8.49 µM (inactive)	23.6 µM (inactive)	31.5 µM (inactive)	4.2 µM (inactive)	13.1 µM (inactive)	30.7 µM (inactive)	6.7 µM (inactive)	30.6 µM (inactive)	–	4.92 µM (inactive)	10.9 µM (inactive)	13.3 µM (inactive)	4.61 µM (inactive)	5.83 µM (inactive)	4.28 µM (inactive)	33.9 µM (inactive)
Nc1ccccc1-c1noc(=O)[nH]1	> 100 µM	> 100 µM (inactive)	> 100 µM (inactive)	> 100 µM (inactive)	> 100 µM (inactive)	> 100 µM (inactive)	> 100 µM (inactive)	> 100 µM (inactive)	> 100 µM (inactive)	> 100 µM (inactive)	> 100 µM (inactive)	> 100 µM (inactive)	> 100 µM (inactive)	> 100 µM (inactive)	–	> 100 µM (inactive)	> 100 µM (inactive)	> 100 µM (inactive)	> 100 µM (inactive)
C1=C(c2ccccc2)C(N2CCOCC2)Oc2ccccc21 (stereo not given)	> 100 µM	> 100 µM (inactive)	> 100 µM (inactive)	–	> 100 µM (inactive)	> 100 µM (inactive)	> 100 µM (inactive)	> 100 µM (inactive)	> 100 µM (inactive)	> 100 µM (inactive)	> 100 µM (inactive)	> 100 µM (inactive)	> 100 µM (inactive)	> 100 µM (inactive)	> 100 µM (inactive)	95.3 µM (inactive)	77.4 µM (inactive)	81.7 µM (inactive)	> 100 µM (inactive)
N#CCC1COc2ccccc2O1 (stereo not given)	> 10 µM	> 10 µM (inactive)	> 10 µM (inactive)	–	> 10 µM (inactive)	> 10 µM (inactive)	> 10 µM (inactive)	> 10 µM (inactive)	> 10 µM (inactive)	–	> 10 µM (inactive)	> 10 µM (inactive)	> 10 µM (inactive)	> 10 µM (inactive)	–	> 10 µM (inactive)	> 10 µM (inactive)	> 10 µM (inactive)	–
C[C@]12CC[C@@H]3c4cc(C=O)c(OCc5ccccc5)cc4CC[C@H]3[C@@H]1CCC2OCc1ccccc1 (stereo not given in full)	> 100 µM	> 100 µM (inactive)	> 100 µM (inactive)	> 100 µM (inactive)	> 100 µM (inactive)	> 100 µM (inactive)	> 100 µM (inactive)	> 100 µM (inactive)	58.9 µM (inactive)	> 100 µM (inactive)	> 100 µM (inactive)	60.7 µM (inactive)	> 100 µM (inactive)	> 100 µM (inactive)	> 100 µM (inactive)	> 100 µM (inactive)	56.6 µM (inactive)	> 100 µM (inactive)	> 100 µM (inactive)
CN(C)CCOc1ccc2[nH]c(C(=O)N3CC(CCl)c4ccc(N)cc43)cc2c1 (stereo not given)	0.102 µM	0.0424 µM (active)	0.0912 µM (active)	0.0653 µM (active)	0.121 µM (active)	0.29 µM (active)	0.36 µM (active)	0.0354 µM (active)	0.151 µM (active)	0.0631 µM (active)	0.176 µM (active)	0.0667 µM (active)	0.0381 µM (active)	0.0535 µM (active)	0.0273 µM (active)	0.0753 µM (active)	0.0459 µM (active)	< 0.01 µM (active)	0.231 µM (active)
CO[C@H]1C[C@H](O[C@H]2CC[C@]3(C=O)[C@H]4CC[C@]5(C)[C@@H](C6=CC(=O)OC6)CC[C@]5(O)[C@@H]4CC[C@]3(O)C2)O[C@H](C)[C@H]1O [CYMARIN]	0.192 µM	0.384 µM (active)	0.307 µM (active)	0.397 µM (active)	0.243 µM (active)	0.167 µM (active)	0.341 µM (active)	0.163 µM (active)	0.37 µM (active)	0.146 µM (active)	0.525 µM (active)	0.0805 µM (active)	–	2.08 µM (inactive)	0.112 µM (active)	0.43 µM (active)	0.203 µM (active)	0.0883 µM (active)	0.175 µM (active)

Reference: ChEMBL document CHEMBL1201862, “PubChem BioAssay data set” (2004)
